Measurements: US4477443A, “Tylosin derivatives, their preparation and pharmaceutical compositions containing them” (Zaidan Hojin Biselbutsu Kagaku Kenkyu Kai (Microbial …, priority 1981, dated 1984)
Converted amounts (≈) assume the structure as drawn. Read-outs that look alike come from different tables or passages of the source.

How the values were obtained:
Assay type in all cases: cell-based
Pro. vulgaris OX-19 = test: antimicrobial activity (MIC), Table I; conditions: Proteus vulgaris, OX19; Pro. vulgaris OX-19; read-out: MIC
B. subtilis NRRL B-558 = test: antimicrobial activity (MIC), Table I; conditions: Bacillus subtilis, NRRLB558; B. subtilis NRRL B-558; read-out: MIC
E. coli NIHJ = test: antimicrobial activity (MIC), Table I; conditions: Escherichia coli; E. coli NIHJ; read-out: MIC
Kleb. pneumoniae PCI 602 = test: antimicrobial activity (MIC), Table I; conditions: Klebsiella pneumoniae, PCI602; Kleb. pneumoniae PCI 602; read-out: MIC
Sarcina lutea PCI 1001 = test: antimicrobial activity (MIC), Table I; conditions: Micrococcus luteus, PCI1001; Sarcina lutea PCI 1001; read-out: MIC
E. coli K-12 ML 1410 = test: antimicrobial activity (MIC), Table I; conditions: Escherichia coli, K12ML1410
Staph. aureus 193 = test: antimicrobial activity (MIC), Table I; conditions: Staphylococcus aureus; Staph. aureus 193; read-out: MIC
Coryn. bovis 1810 = test: antimicrobial activity (MIC), Table I; conditions: Corynebacterium bovis; Coryn. bovis 1810; read-out: MIC
E. coli K-12 R-5 = test: antimicrobial activity (MIC), Table I; conditions: Escherichia coli, K12R5; E. coli K-12 R-5; read-out: MIC
Staph. aureus 209 P = test: antimicrobial activity (MIC), Table I; conditions: Staphylococcus aureus; Staph. aureus 209 P; read-out: MIC
[1] = tested on: Shigella dysenteriae JS 11910; test: antimicrobial activity (MIC), Table I; conditions: JS11910
Sal. enteritidis 1891 = test: antimicrobial activity (MIC), Table I; conditions: Salmonella enterica; Sal. enteritidis 1891; read-out: MIC
E. coli K-12 = test: antimicrobial activity (MIC), Table I; conditions: Escherichia coli, K12; E. coli K-12; read-out: MIC
Staph. aureus MS 9861 = test: antimicrobial activity (MIC), Table I; conditions: Staphylococcus aureus, MS9861; Staph. aureus MS 9861; read-out: MIC
B. subtilis ATCC 6633 = test: antimicrobial activity (MIC), Table II; conditions: Bacillus subtilis, ATCC6633; B. subtilis ATCC 6633; read-out: MIC
[2] = tested on: Staph. epidermidis IID 866; test: antimicrobial activity (MIC), Table II; conditions: Staphylococcus epidermidis, IID866
Staph. aureus ATCC 6538P = test: antimicrobial activity (MIC), Table II; conditions: Staphylococcus aureus, ATCC6538P
Staph. aureus 226 = test: antimicrobial activity (MIC), Table II; conditions: Staphylococcus aureus
B. cereus = test: antimicrobial activity (MIC), Table II; conditions: Bacillus cereus; B. cereus; read-out: MIC
Staph. aureus KC-11 = test: antimicrobial activity (MIC), Table II; conditions: Staphylococcus aureus, KC11; Staph. aureus KC-11; read-out: MIC
[3] = E. coli K-12 ML 1410, read-out: MIC
[4] = Staph. aureus ATCC 6538P, read-out: MIC
[5] = Staph. aureus 226, read-out: MIC

Row | Compound | MIC (B. subtilis ATCC 6633) [µg/mL] | MIC [2] [µg/mL] | MIC (Staph. aureus ATCC 6538P; [4]) [µg/mL] | MIC (Staph. aureus 226; [5]) [µg/mL] | MIC (B. cereus) [µg/mL] | MIC (Staph. aureus KC-11) [µg/mL] | MIC (Pro. vulgaris OX-19) [µg/mL] | MIC (B. subtilis NRRL B-558) [µg/mL] | MIC (E. coli NIHJ) [µg/mL] | MIC (Kleb. pneumoniae PCI 602) [µg/mL] | MIC (Sarcina lutea PCI 1001) [µg/mL] | MIC (Staph. aureus 193) [µg/mL] | MIC (Coryn. bovis 1810) [µg/mL] | MIC (E. coli K-12 R-5) [µg/mL] | MIC (Staph. aureus 209 P) [µg/mL] | MIC [1] [µg/mL] | MIC (Sal. enteritidis 1891) [µg/mL] | MIC (E. coli K-12) [µg/mL] | MIC (Staph. aureus MS 9861) [µg/mL] | further results
1 | CCC1OC(=O)CC(O)C(C)C(OC2OC(C)C(O)C(N(C)C)C2O)C(CC=O)CC(C)C(=O)C=CC(C)=CC1CN(C)C (stereo not drawn) [Example 4, 23-deoxy-23-dimethylaminomycaminosyl tylonolide] | – | – | – | – | – | – | 1.56 (≈ 2.5 µM) | 0.78 (≈ 1.25 µM) | 0.78 (≈ 1.25 µM) | 0.78 (≈ 1.25 µM) | < 0.2 | 0.39 (≈ 0.624 µM) | 0.78 (≈ 1.25 µM) | 1.56 (≈ 2.5 µM) | 0.2 (≈ 0.32 µM) | 0.39 (≈ 0.624 µM) | 1.56 (≈ 2.5 µM) | 1.56 (≈ 2.5 µM) | 1.56 (≈ 2.5 µM) | MIC (E. coli K-12 ML 1410; [3]): 1.56 µg/mL (≈ 2.5 µM)
2 | CCC1OC(=O)CC(O)C(C)C(OC2OC(C)CC(N(C)C)C2O)C(CC=O)CC(C)C(=O)C=CC(C)=CC1CN1CCCC1 (stereo not drawn) [Example 16, 23,4'-dideoxy-23-pyrrolidinomycaminosyl tylonolide] | – | – | – | – | – | – | 1.56 (≈ 2.46 µM) | 0.78 (≈ 1.23 µM) | 1.56 (≈ 2.46 µM) | 0.78 (≈ 1.23 µM) | < 0.2 | 1.56 (≈ 2.46 µM) | 0.39 (≈ 0.614 µM) | 1.56 (≈ 2.46 µM) | 0.39 (≈ 0.614 µM) | < 0.2 | 0.39 (≈ 0.614 µM) | 3.12 (≈ 4.91 µM) | 3.12 (≈ 4.91 µM) | MIC (E. coli K-12 ML 1410): 3.12 µg/mL (≈ 4.91 µM)
3 | CCC1OC(=O)CC(O)C(C)C(OC2OC(C)CC(N(C)C)C2O)C(CC=O)CC(C)C(=O)C=CC(C)=CC1CN1CCCCC1 (stereo not drawn) [Example 17, 23,4'-dideoxy-23-piperidinomycaminosyl tylonolide] | – | – | – | – | – | – | 0.78 (≈ 1.2 µM) | 0.39 (≈ 0.601 µM) | 0.78 (≈ 1.2 µM) | 1.56 (≈ 2.4 µM) | < 0.2 | 0.78 (≈ 1.2 µM) | < 0.2 | 1.56 (≈ 2.4 µM) | 0.39 (≈ 0.601 µM) | < 0.2 | 0.39 (≈ 0.601 µM) | 3.12 (≈ 4.81 µM) | 1.56 (≈ 2.4 µM) | MIC (E. coli K-12 ML 1410; [3]): 0.78 µg/mL (≈ 1.2 µM)
4 | CCC1OC(=O)CC(O)C(C)C(OC2OC(C)C(O)C(N(C)C)C2O)C(CC=O)CC(C)C(=O)C=CC(C)=CC1CN1CCCCCC1 (stereo not drawn) [Example 24, 23-deoxy-23-hexamethyleneiminomycaminosyl tylonolide] | 0.78 (≈ 1.15 µM) | 0.39 (≈ 0.574 µM) | – | – | 0.39 (≈ 0.574 µM) | 0.78 (≈ 1.15 µM) | – | – | – | – | – | – | – | – | – | – | – | – | – | MIC (Staph. aureus ATCC 6538P): 0.39 µg/mL (≈ 0.574 µM); MIC (Staph. aureus 226; 226): ≤ 0.2 µg/mL
5 | CCC(=O)N(CC)CC1C=C(C)C=CC(=O)C(C)CC(CC=O)C(OC2OC(C)C(O)C(N(C)C)C2O)C(C)C(O)CC(=O)OC1CC (stereo not drawn) [Example 42, 23-deoxy-23-N-ethylpropionylaminomycaminosyl tylonolide] | 0.78 (≈ 1.15 µM) | 0.78 (≈ 1.15 µM) | 0.78 (≈ 1.15 µM) | 0.78 (≈ 1.15 µM) | 0.39 (≈ 0.573 µM) | 1.56 (≈ 2.29 µM) | – | – | – | – | – | – | – | – | – | – | – | – | – | –

Now from value to compound, other results behind:

Row | MIC (B. subtilis ATCC 6633) [µg/mL] | MIC [2] [µg/mL] | MIC (Staph. aureus ATCC 6538P; [4]) [µg/mL] | MIC (Staph. aureus 226; [5]) [µg/mL] | MIC (B. cereus) [µg/mL] | MIC (Staph. aureus KC-11) [µg/mL] | Compound | MIC (Pro. vulgaris OX-19) [µg/mL] | MIC (B. subtilis NRRL B-558) [µg/mL] | MIC (E. coli NIHJ) [µg/mL] | MIC (Kleb. pneumoniae PCI 602) [µg/mL] | MIC (Sarcina lutea PCI 1001) [µg/mL] | MIC (Staph. aureus 193) [µg/mL] | MIC (Coryn. bovis 1810) [µg/mL] | MIC (E. coli K-12 R-5) [µg/mL] | MIC (Staph. aureus 209 P) [µg/mL] | MIC [1] [µg/mL] | MIC (Sal. enteritidis 1891) [µg/mL] | MIC (E. coli K-12) [µg/mL] | MIC (Staph. aureus MS 9861) [µg/mL] | further results
6 | 0.78 (≈ 1.25 µM) | 0.78 (≈ 1.25 µM) | 0.78 (≈ 1.25 µM) | 0.78 (≈ 1.25 µM) | 0.39 (≈ 0.626 µM) | 0.78 (≈ 1.25 µM) | CCC1OC(=O)CC(O)C(C)C(OC2OC(C)CC(N(C)C)C2O)C(CC=O)CC(C)C(=O)C=CC(C)=CC1CNC(C)C (stereo not drawn) [Example 21, 23,4'-dideoxy-23-isopropylaminomycaminosyl tylonolide] | – | – | – | – | – | – | – | – | – | – | – | – | – | –
7 | 0.78 (≈ 1.22 µM) | 0.78 (≈ 1.22 µM) | 0.78 (≈ 1.22 µM) | 0.78 (≈ 1.22 µM) | 0.39 (≈ 0.612 µM) | 0.78 (≈ 1.22 µM) | CCC1OC(=O)CC(O)C(C)C(OC2OC(C)CC(N(C)C)C2O)C(CC=O)CC(C)C(=O)C=CC(C)=CC1CNC(C)(C)C (stereo not drawn) [Example 22, 23,4'-dideoxy-23-(t-butylamino)mycaminosyl tylonolide] | – | – | – | – | – | – | – | – | – | – | – | – | – | –
8 | 1.56 (≈ 2.4 µM) | 0.78 (≈ 1.2 µM) | 0.78 (≈ 1.2 µM) | 0.78 (≈ 1.2 µM) | 0.78 (≈ 1.2 µM) | 0.78 (≈ 1.2 µM) | CCC1OC(=O)CC(O)C(C)C(OC2OC(C)CC(N(C)C)C2O)C(CC=O)CC(C)C(=O)C=CC(C)=CC1CNCC(C)(C)C (stereo not drawn) [Example 23, 23,4'-dideoxy-23-neopentylaminocaminosyl tylonolide] | – | – | – | – | – | – | – | – | – | – | – | – | – | –
